{"source": "paper PMC8399443", "about": "“Synthesis, Biological Evaluation, and In Silico Modeling of N-Substituted Quinoxaline-2-Carboxamides” (Pharmaceuticals, 2021)", "key": {"Mtb H37Ra": {"tested_on": "Mtb H37Ra", "assay": "In vitro antimycobacterial activity, Microplate Alamar Blue Assay (MABA)", "format": "cell-based, Mycobacterium tuberculosis", "settings": "for SI (selectivity index): IC50 HepG2 (µM)/MIC Mtb H37Ra (µM); for MIC: Mycobacterium tuberculosis, H37RA, read-out: MIC Mtb H37Ra; for MIC Mtb H37Ra: MABA, pH of testing medium 6.6"}, "M. smegmatis": {"tested_on": "M. smegmatis", "assay": "In vitro antimycobacterial activity, MABA", "format": "cell-based, Mycobacterium smegmatis", "settings": "Mycolicibacterium smegmatis, read-out: MIC M. smeg"}, "M. aurum": {"tested_on": "M. aurum", "assay": "In vitro antimycobacterial activity, MABA", "format": "cell-based, Mycobacterium aurum", "settings": "Mycolicibacterium aurum, read-out: MIC M. aurum"}, "HepG2 cell line": {"tested_on": "HepG2 cell line", "assay": "In vitro cytotoxicity, CellTiter 96 (MTS)", "format": "cell-based", "settings": "Homo sapiens, HepG2; cytotoxicity, 24 h incubation, CellTiter 96; read-out: HepG2 IC50"}}, "note": "Several values for one entry are separate records, joined by “and”; a condition that tells them apart may be missing. Identical values can stand only once. Like-named read-outs stand apart in the source and are kept apart here.", "data": [{"smiles": "O=C(Nc1ccc(O)cc1)c1cnc2ccccc2n1", "note": "[Compound 3]", "values": [{"measurement": "SI (selectivity index)", "setting": "Mtb H37Ra", "result": ">1.01"}, {"measurement": "MIC", "setting": "Mtb H37Ra", "result": "62.5 µg/mL and 236 µM"}, {"measurement": "MIC", "setting": "M. smegmatis; MABA", "result": "≥ 500", "unit": "µg/mL"}, {"measurement": "MIC", "setting": "M. aurum; MABA", "result": "≥ 500", "unit": "µg/mL"}, {"measurement": "IC50", "setting": "HepG2 cell line", "result": "> 250", "unit": "µM"}]}, {"smiles": "O=C(Nc1ccc(F)cc1)c1cnc2ccccc2n1", "note": "[Compound 9]", "values": [{"measurement": "SI (selectivity index)", "setting": "Mtb H37Ra", "result": ">1.71"}, {"measurement": "MIC", "setting": "Mtb H37Ra", "result": "15.6 µg/mL and 58.5 µM"}, {"measurement": "MIC", "setting": "M. smegmatis; MABA", "result": "≥ 500", "unit": "µg/mL"}, {"measurement": "MIC", "setting": "M. aurum; MABA", "result": "≥ 500", "unit": "µg/mL"}, {"measurement": "IC50", "setting": "HepG2 cell line", "result": "> 100", "unit": "µM"}]}, {"smiles": "O=C(Nc1cccc(Cl)c1)c1cnc2ccccc2n1", "note": "[Compound 13]", "values": [{"measurement": "MIC", "setting": "Mtb H37Ra", "result": "≥ 500", "unit": "µg/mL"}, {"measurement": "MIC", "setting": "M. smegmatis; MABA", "result": "≥ 500", "unit": "µg/mL"}, {"measurement": "MIC", "setting": "M. aurum; MABA", "result": "≥ 500", "unit": "µg/mL"}, {"measurement": "IC50", "setting": "HepG2 cell line", "result": "> 25", "unit": "µM"}]}, {"smiles": "O=C(NCc1ccc(Cl)cc1Cl)c1cnc2ccccc2n1", "note": "[Compound 30]", "values": [{"measurement": "MIC", "setting": "Mtb H37Ra", "result": "≥ 500", "unit": "µg/mL"}, {"measurement": "MIC", "setting": "M. smegmatis; MABA", "result": "≥ 125", "unit": "µg/mL"}, {"measurement": "MIC", "setting": "M. aurum; MABA", "result": "≥ 125", "unit": "µg/mL"}, {"measurement": "IC50", "setting": "HepG2 cell line", "result": "> 100", "unit": "µM"}]}, {"smiles": "O=C(Nc1cccc(O)c1)c1cnc2ccccc2n1", "note": "[Compound 2]", "values": [{"measurement": "SI (selectivity index)", "setting": "Mtb H37Ra", "result": ">4.20"}, {"measurement": "MIC", "setting": "Mtb H37Ra", "result": "15.6 µg/mL and 58.9 µM"}, {"measurement": "MIC", "setting": "M. smegmatis; MABA", "result": "≥ 125", "unit": "µg/mL"}, {"measurement": "MIC", "setting": "M. aurum; MABA", "result": "≥ 125", "unit": "µg/mL"}, {"measurement": "IC50", "setting": "HepG2 cell line", "result": "> 250", "unit": "µM"}]}, {"smiles": "O=C(NCc1cccc(F)c1)c1cnc2ccccc2n1", "note": "[Compound 21]", "values": [{"measurement": "SI (selectivity index)", "setting": "Mtb H37Ra", "result": 8.92}, {"measurement": "MIC", "setting": "Mtb H37Ra", "result": "7.81 µg/mL and 27.8 µM"}, {"measurement": "MIC", "setting": "M. smegmatis; MABA", "result": "≥ 500", "unit": "µg/mL"}, {"measurement": "MIC", "setting": "M. aurum; MABA", "result": "≥ 500", "unit": "µg/mL"}, {"measurement": "IC50", "setting": "HepG2 cell line", "result": 248, "unit": "µM"}]}, {"smiles": "O=C(Nc1ccccc1Cl)c1cnc2ccccc2n1", "note": "[Compound 12]", "values": [{"measurement": "MIC", "setting": "Mtb H37Ra", "result": "≥ 125", "unit": "µg/mL"}, {"measurement": "MIC", "setting": "M. smegmatis; MABA", "result": "≥ 125", "unit": "µg/mL"}, {"measurement": "MIC", "setting": "M. aurum; MABA", "result": "≥ 125", "unit": "µg/mL"}, {"measurement": "IC50", "setting": "HepG2 cell line", "result": "> 50", "unit": "µM"}]}, {"smiles": "O=C(Nc1ccccc1F)c1cnc2ccccc2n1", "note": "[Compound 7]", "values": [{"measurement": "MIC", "setting": "Mtb H37Ra", "result": "≥ 500", "unit": "µg/mL"}, {"measurement": "MIC", "setting": "M. smegmatis", "result": 234, "unit": "µM"}, {"measurement": "MIC", "setting": "M. smegmatis; MABA", "result": 62.5, "unit": "µg/mL"}, {"measurement": "MIC", "setting": "M. aurum; MABA", "result": "≥ 500", "unit": "µg/mL"}, {"measurement": "IC50", "setting": "HepG2 cell line", "result": "> 100", "unit": "µM"}]}, {"smiles": "O=C(NCc1ccc(O)cc1)c1cnc2ccccc2n1", "note": "[Compound 17]", "values": [{"measurement": "SI (selectivity index)", "setting": "Mtb H37Ra", "result": ">1.1"}, {"measurement": "MIC", "setting": "Mtb H37Ra", "result": "62.5 µg/mL and 224 µM"}, {"measurement": "MIC", "setting": "M. smegmatis; MABA", "result": "≥ 500", "unit": "µg/mL"}, {"measurement": "MIC", "setting": "M. aurum; MABA", "result": 500, "unit": "µg/mL"}, {"measurement": "IC50", "setting": "HepG2 cell line", "result": "> 250", "unit": "µM"}]}, {"smiles": "COc1ccc(NC(=O)c2cnc3ccccc3n2)cc1", "note": "[Compound 5]", "values": [{"measurement": "MIC", "setting": "Mtb H37Ra", "result": "≥ 125", "unit": "µg/mL"}, {"measurement": "MIC", "setting": "M. smegmatis; MABA", "result": "≥ 125", "unit": "µg/mL"}, {"measurement": "MIC", "setting": "M. aurum; MABA", "result": "≥ 125", "unit": "µg/mL"}, {"measurement": "IC50", "setting": "HepG2 cell line", "result": "> 50", "unit": "µM"}]}, {"smiles": "O=C(NCc1ccccc1)c1cnc2ccccc2n1", "note": "[Compound 15]", "values": [{"measurement": "SI (selectivity index)", "setting": "Mtb H37Ra", "result": ">17"}, {"measurement": "MIC Mtb H37Ra", "setting": "Mtb H37Ra", "result": "15.625 (15) µg/mL"}, {"measurement": "MIC", "setting": "Mtb H37Ra", "result": "15.6 µg/mL and 59.3 µM"}, {"measurement": "MIC", "setting": "M. smegmatis; MABA", "result": "≥ 125", "unit": "µg/mL"}, {"measurement": "MIC", "setting": "M. aurum; MABA", "result": "≥ 125", "unit": "µg/mL"}, {"measurement": "IC50", "setting": "HepG2 cell line", "result": "> 1000", "unit": "µM"}]}, {"smiles": "CO[C@H]1/C=C/O[C@@]2(C)Oc3c(C)c(O)c4c(O)c(c(/C=N/N5CCN(C)CC5)c(O)c4c3C2=O)NC(=O)/C(C)=C\\C=C\\[C@H](C)[C@H](O)[C@@H](C)[C@@H](O)[C@@H](C)[C@H](OC(C)=O)[C@@H]1C", "note": "[RIF, rifampicin, reference compound]", "values": [{"measurement": "MIC", "setting": "Mtb H37Ra", "result": "0.00313 µg/mL and 0.0038 µM"}, {"measurement": "MIC", "setting": "M. smegmatis", "result": 12.5, "unit": "µg/mL"}, {"measurement": "MIC", "setting": "M. aurum", "result": 0.39, "unit": "µg/mL"}, {"measurement": "IC50", "setting": "HepG2 cell line", "result": "> 500", "unit": "µM"}]}, {"smiles": "COc1cc(NC(=O)c2cnc3ccccc3n2)cc(OC)c1", "note": "[Compound 4]", "values": [{"measurement": "SI (selectivity index)", "setting": "Mtb H37Ra", "result": ">0.12"}, {"measurement": "MIC", "setting": "Mtb H37Ra", "result": "62.5 µg/mL and 202 µM"}, {"measurement": "MIC", "setting": "M. smegmatis; MABA", "result": "≥ 125", "unit": "µg/mL"}, {"measurement": "MIC", "setting": "M. aurum; MABA", "result": "≥ 125", "unit": "µg/mL"}, {"measurement": "IC50", "setting": "HepG2 cell line", "result": "> 25", "unit": "µM"}]}, {"smiles": "O=C(NCc1cccc(O)c1)c1cnc2ccccc2n1", "note": "[Compound 16]", "values": [{"measurement": "SI (selectivity index)", "setting": "Mtb H37Ra", "result": 5.40}, {"measurement": "MIC", "setting": "Mtb H37Ra", "result": "31.2 µg/mL and 112 µM"}, {"measurement": "MIC", "setting": "M. smegmatis", "result": 237, "unit": "µM"}, {"measurement": "MIC", "setting": "M. smegmatis; MABA", "result": 62.5, "unit": "µg/mL"}, {"measurement": "MIC", "setting": "M. aurum; MABA", "result": "≥ 500", "unit": "µg/mL"}, {"measurement": "IC50", "setting": "HepG2 cell line", "result": 601, "unit": "µM"}]}, {"smiles": "COc1ccc(CNC(=O)c2cnc3ccccc3n2)cc1", "note": "[Compound 20]", "values": [{"measurement": "SI (selectivity index)", "setting": "Mtb H37Ra", "result": 16.1}, {"measurement": "MIC Mtb H37Ra", "setting": "Mtb H37Ra", "result": "3.91 (20) µg/mL"}, {"measurement": "MIC", "setting": "Mtb H37Ra", "result": "3.91 µg/mL and 11.8 µM"}, {"measurement": "MIC", "setting": "M. smegmatis", "result": "≥ 250", "unit": "µg/mL"}, {"measurement": "MIC", "setting": "M. aurum", "result": 125, "unit": "µg/mL"}, {"measurement": "IC50", "setting": "HepG2 cell line", "result": 209, "unit": "µM"}]}, {"smiles": "O=C(Nc1ccc(F)cc1F)c1cnc2ccccc2n1", "note": "[Compound 11]", "values": [{"measurement": "MIC", "setting": "Mtb H37Ra", "result": "≥ 500", "unit": "µg/mL"}, {"measurement": "MIC", "setting": "M. smegmatis; MABA", "result": "≥ 500", "unit": "µg/mL"}, {"measurement": "MIC", "setting": "M. aurum; MABA", "result": "≥ 500", "unit": "µg/mL"}, {"measurement": "IC50", "setting": "HepG2 cell line", "result": "> 250", "unit": "µM"}]}, {"smiles": "Cc1ccccc1CNC(=O)c1cnc2ccccc2n1", "note": "[Compound 23]", "values": [{"measurement": "SI (selectivity index)", "setting": "Mtb H37Ra", "result": 5.60}, {"measurement": "MIC", "setting": "Mtb H37Ra", "result": "7.81 µg/mL and 28.2 µM"}, {"measurement": "MIC", "setting": "M. smegmatis; MABA", "result": "≥ 125", "unit": "µg/mL"}, {"measurement": "MIC", "setting": "M. aurum; MABA", "result": "≥ 125", "unit": "µg/mL"}, {"measurement": "IC50", "setting": "HepG2 cell line", "result": 157, "unit": "µM"}]}, {"smiles": "O=C(O)c1nccnc1C(=O)Nc1ccccc1", "note": "[C00007 R=H, reference compound]", "values": [{"measurement": "MIC", "setting": "Mtb H37Ra", "result": "≥ 500", "unit": "µg/mL"}]}, {"smiles": "O=C(NCc1cccc(C(F)(F)F)c1)c1cnc2ccccc2n1", "note": "[Compound 28]", "values": [{"measurement": "SI (selectivity index)", "setting": "Mtb H37Ra", "result": 4.12}, {"measurement": "MIC Mtb H37Ra", "setting": "Mtb H37Ra", "result": "3.91 (28) µg/mL"}, {"measurement": "MIC", "setting": "Mtb H37Ra", "result": "3.91 µg/mL and 11.8 µM"}, {"measurement": "MIC", "setting": "M. smegmatis; MABA", "result": 250, "unit": "µg/mL"}, {"measurement": "MIC", "setting": "M. aurum; MABA", "result": "≥ 500", "unit": "µg/mL"}, {"measurement": "IC50", "setting": "HepG2 cell line", "result": 48.6, "unit": "µM"}]}]}
